Molecular target: T1, T1R2 and T1R3 with G protein α-subunits (α15 and α16/Z chimeric protein) (Mus musculus, UniProt Q925D8+Q925I4, E350G/G527D/I706N/P352R/R175Q)
T1 construct: expressed in transfected cells; host or cells: 293 cells, RCB 1637 (human embryonic kidney)
T1 sequence (Q925I4 20-843 R175Q/E350G/P352R/G527D): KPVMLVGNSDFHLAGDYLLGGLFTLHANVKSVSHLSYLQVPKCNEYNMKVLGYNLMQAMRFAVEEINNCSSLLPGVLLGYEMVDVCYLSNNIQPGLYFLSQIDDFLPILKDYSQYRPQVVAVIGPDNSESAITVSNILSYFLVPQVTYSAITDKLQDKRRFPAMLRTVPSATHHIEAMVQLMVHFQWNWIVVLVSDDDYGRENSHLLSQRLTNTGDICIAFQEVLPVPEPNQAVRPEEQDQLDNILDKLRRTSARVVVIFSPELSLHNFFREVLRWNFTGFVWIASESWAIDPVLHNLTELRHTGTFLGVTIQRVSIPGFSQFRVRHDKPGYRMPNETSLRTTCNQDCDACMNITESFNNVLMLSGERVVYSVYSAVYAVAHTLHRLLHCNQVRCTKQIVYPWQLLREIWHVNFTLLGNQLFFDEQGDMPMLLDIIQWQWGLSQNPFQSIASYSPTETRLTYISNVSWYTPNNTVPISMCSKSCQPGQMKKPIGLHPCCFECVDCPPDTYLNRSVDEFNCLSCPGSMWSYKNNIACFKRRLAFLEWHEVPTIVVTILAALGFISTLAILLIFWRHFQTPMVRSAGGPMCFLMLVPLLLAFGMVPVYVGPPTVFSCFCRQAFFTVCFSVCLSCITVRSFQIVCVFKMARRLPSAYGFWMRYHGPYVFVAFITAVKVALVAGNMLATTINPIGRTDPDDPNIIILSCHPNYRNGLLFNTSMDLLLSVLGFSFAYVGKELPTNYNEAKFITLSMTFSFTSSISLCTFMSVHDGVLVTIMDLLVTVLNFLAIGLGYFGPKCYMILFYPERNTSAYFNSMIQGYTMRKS
T1 sequence (Q925D8 21-858 I706N): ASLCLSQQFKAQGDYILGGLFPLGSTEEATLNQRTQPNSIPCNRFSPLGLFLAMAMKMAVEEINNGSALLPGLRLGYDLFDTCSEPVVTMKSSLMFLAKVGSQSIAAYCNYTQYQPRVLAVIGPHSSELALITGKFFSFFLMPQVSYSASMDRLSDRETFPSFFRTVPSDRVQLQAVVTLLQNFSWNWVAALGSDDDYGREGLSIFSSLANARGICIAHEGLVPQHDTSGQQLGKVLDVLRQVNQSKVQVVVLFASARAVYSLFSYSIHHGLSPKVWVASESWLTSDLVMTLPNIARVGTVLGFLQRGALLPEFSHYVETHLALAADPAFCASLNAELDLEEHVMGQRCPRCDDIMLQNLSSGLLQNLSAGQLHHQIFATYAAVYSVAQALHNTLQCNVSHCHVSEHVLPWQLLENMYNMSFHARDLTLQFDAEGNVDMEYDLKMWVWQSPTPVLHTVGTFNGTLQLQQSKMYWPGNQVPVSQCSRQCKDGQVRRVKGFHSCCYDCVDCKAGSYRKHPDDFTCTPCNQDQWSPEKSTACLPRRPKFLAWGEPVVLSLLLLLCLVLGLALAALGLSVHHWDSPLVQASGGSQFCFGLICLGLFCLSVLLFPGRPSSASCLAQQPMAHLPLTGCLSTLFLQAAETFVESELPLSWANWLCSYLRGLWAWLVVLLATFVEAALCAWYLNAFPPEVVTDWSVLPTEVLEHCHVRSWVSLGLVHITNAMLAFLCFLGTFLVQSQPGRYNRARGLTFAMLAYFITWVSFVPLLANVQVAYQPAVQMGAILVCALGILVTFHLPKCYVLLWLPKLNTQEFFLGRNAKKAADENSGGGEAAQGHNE
Assay: Intracellular calcium ion assay, 293 cells coexpressing G protein α-subunits, T1R2 and T1R3
Assay type: cell-based
Details: 293 cells: T1R2 + T1R3 + G protein α-subunits, 0.67 ml of 1 M saccharide solution added to 2 ml cell suspension, FLUO-4 AM
Experimental: The coexpression vector for the G protein α-subunit α15 and the G protein α16/Z chimeric protein (hereinafter designated as “G protein α-subunits”) obtained in Example 1-3 was gene transferred to 293 cells, RCB 1637, a human embryonic kidney cell line, available from the Riken Bioresource Center, Ibaraki, Japan, by conventional lipofection. The gene transferred cells were suspended in Dulbecco's Modified Eagle's Medium (D-MEM) supplemented with 1 mg/L of “PUROMYCIN”, a trade mane of puromycin commercialized by Edge Biosystems, MD, USA, and 10% (v/v) of fetal calf serum to give a cell density of 2×10^6 cells/ml and cultured in a plastic petri dish for cell culture. After 10 to 14 days of incubation, a puromycin-resistant cell colony was collected and confirmed its production of the G protein α-subunit proteins with an index of their mRNA level by conventional RT-PCR. Thus, a cell line capable of expressing the G protein α-subunit proteins was established. To the cells were gene transferred an expression vector for the sweet taste receptor protein T1R1, T1R2, or T1R3 in Example 2-2; or a coexpression vector for a pair of T1R1 and T1R2, T1R1 and T1R3, or T1R2 and T1R3 by conventional lipofection. The resulting cells were suspended in D-MEM supplemented with 1 mg/L of “PUROMYCIN”, 500 mg/L of “GENETICIN”, and 10% (v/v) of fetal calf serum and cultured in a plastic petri dish for cell culture. […]
The captioned reactivity test was conducted according to a conventional intracellular calcium ion assay: 293 Cells prepared in Example 3, capable of coexpressing the G protein α-subunits and the sweet taste receptor(s), were cultured in a plastic petri dish for cell culture until reaching its confluent phase. […] Two milliliters of the resultant cell suspension was injected into a glass cuvette, commercialized by Hitachi, Ltd., Tokyo, Japan, and analyzed on “HITACHI 650-40”, a fluorescence spectrophotometer commercialized by Hitachi, Ltd., Tokyo, Japan. […]

Influx of calcium ion	Influx of calcium ion (listed as sucrose)	Compound
Positive	detected	OC[C@H]1O[C@@](CO)(O[C@H]2O[C@H](CO)[C@@H](O)[C@H](O)[C@H]2O)[C@@H](O)[C@@H]1O [Sucrose, reference compound]
Positive	–	OC[C@H]1O[C@H](O[C@H]2O[C@H](CO)[C@@H](O)[C@H](O)[C@H]2O)[C@H](O)[C@@H](O)[C@@H]1O [Trehalose]
